The text below walks through data of patent publication US20260258035A1, “FIVE-MEMBERED AND SIX-MEMBERED NITROGEN-CONTAINING COMPOUND, AND INTERMEDIATE, PREPARATION METHOD AND USE THEREOF” (HANGZHOU SYNRX THERAPEUTICS BIOMEDICAL TECHNOLOGY CO., LTD., priority 2022, published 2026).

One data set addresses PARG (Homo sapiens, UniProt Q86W56). The experiment in a line: Biochemical assay (PARG, TFMU-ADPr substrate).
For another data set, the system named is HCC1806. The experiment in a line: Cell viability assay (CellTiter-Glo). It is filed as cell-based, Human. The following applies: HCC1806, 7 days, CellTiter-Glo, read-out: IC50 (nM) in cell viability assay. (In general: ATP-based viability assays read luminescence as a measure of living cells.)
Data set [1] is described as follows: Solubility assay (FaSSGF / FaSSIF). It is filed as physicochemical. The settings on record: kinetic from dmso stock, 2 h at 25° C. The protocol: 1). Preparation of Solutions:
The FaSSGF solution was prepared as follows: • a) preparation of FaSSGF buffer: dissolve 2.0 g of NaCl as the raw material in about 0.9 L of purified water; • b) adjustment of the pH of the buffer: adjust the pH of the buffer to 1.6 with 1N HCL, and replenish the buffer with purified water to the volume of 1 L; and • c) preparation of FaSSGF solution by addition of FaSSGF powder: add 0.06 g of the FaSSGF powder to about 0.5 L of the buffer, stir until the powder was completely dissolved, and make up for the volume (1 L) with the buffer.
The FaSSIF solution was prepared as follows: • a) preparation of FaSSIF buffer: dissolve 0.42 g of NaOH, 3.44 g of anhydrous NaH2PO4, and 6.19 g of NaCl as raw materials in about 0.9 L of purified water; • b) adjustment the pH of the buffer: adjust the pH of the buffer to 6.5 with 1 N NaOH or 1 N HCL, and replenish the buffer with purified water to the volume of 1 L; and • c) preparation of FaSSIF solution by addition of FaSSIF powder: add 2.24 g of the FaSSIF powder to about 0.5 L of the buffer, stir until the powder was completely dissolved, and make up for the volume (1 L) with the buffer.
2). Preparation of the Solution of Control Compound:
The control compound was weighed and dissolved in DMSO to 10 mM to obtain a stock solution.
3) Preparation of the Solution of Compound to be Tested:
The compound to be tested was formulated into a 10 mM DMSO stock solution.
4) Preparation of Internal Standard Solution:
a) The internal standard was weighed and dissolved in DMSO to 10 mM to obtain an internal standard stock solution (ISTD stock solution).
b) The internal standard stock solution was diluted to 500 nM (Tolbutamide) with an ACN:methano mixture (volume ratio: 1:1) to obtain a quenching solution.
a) The FaSSGF solution at pH 1.6 and the FaSSIF solution at pH 6.5 were pre-warmed; and then, the compound was injected into the buffer.
Once done, the samples were centrifuged at 12,000 rpm for 10 min, and the supernatant was transferred to a new tube. The supernatant was diluted 10-fold and 100-fold with the FaSSGF solution at pH 1.6 or the FaSSIIF solution at pH 6.5. 20 μL of each sample (1×, 10×, 100× and standard curve) was added to 500 μL of the IS solution. The resulting mixture was vortexed vigorously for 1 min and centrifuged at 4,500 rpm for 15 min at 4° C. 150 μL of the supernatant was transferred for LC-MS/MS sample analysis.

For data set [2], the system named is Human breast squamous carcinoma cells HCC1806. The experiment in a line: Cell function assay (In-Cell Western, PAR/pADPr after MMS). It is filed as cell-based. The following applies: read-out: IC50 (nM) in cell function assay. A digest of the protocol: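 HCC1806 cells adhered 24 h at 37 °C, 5% CO2, then were pretreated 1 h with compound (30000 nM down to 1 nM, plus 0 nM) or DMSO. MMS was then added at 0.5 mM final for 1 h before In-Cell Western detection of PAR/pADPr.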

Setting [3] is: fassgf or other biorelevant, FaSSGF solution pH 1.6, 100 μM from DMSO stock, read-out: FaSSGF solubility.
Where [4] appears, read: FaSSIF solution pH 6.5, 100 μM from DMSO stock, read-out: FaSSIF solubility.
Setting [5] is: 4 nM PARG, 66.2 uM TFMU-ADPr, 3 min at room temperature.
Where [6] appears, read: HCC1806, In-Cell Western, MMS treatment.
The mark [7] stands for this setting: HCC1806, compound 1 h then 0.5 mM MMS 1 h, PAR/pADPr antibody, In-Cell Western.

Structures are written as SMILES. In brackets after ≈: the same amount, converted by molar mass. Read-outs that look alike come from different tables or passages of the source.

PARG, sequence (Q86W56 whole entry): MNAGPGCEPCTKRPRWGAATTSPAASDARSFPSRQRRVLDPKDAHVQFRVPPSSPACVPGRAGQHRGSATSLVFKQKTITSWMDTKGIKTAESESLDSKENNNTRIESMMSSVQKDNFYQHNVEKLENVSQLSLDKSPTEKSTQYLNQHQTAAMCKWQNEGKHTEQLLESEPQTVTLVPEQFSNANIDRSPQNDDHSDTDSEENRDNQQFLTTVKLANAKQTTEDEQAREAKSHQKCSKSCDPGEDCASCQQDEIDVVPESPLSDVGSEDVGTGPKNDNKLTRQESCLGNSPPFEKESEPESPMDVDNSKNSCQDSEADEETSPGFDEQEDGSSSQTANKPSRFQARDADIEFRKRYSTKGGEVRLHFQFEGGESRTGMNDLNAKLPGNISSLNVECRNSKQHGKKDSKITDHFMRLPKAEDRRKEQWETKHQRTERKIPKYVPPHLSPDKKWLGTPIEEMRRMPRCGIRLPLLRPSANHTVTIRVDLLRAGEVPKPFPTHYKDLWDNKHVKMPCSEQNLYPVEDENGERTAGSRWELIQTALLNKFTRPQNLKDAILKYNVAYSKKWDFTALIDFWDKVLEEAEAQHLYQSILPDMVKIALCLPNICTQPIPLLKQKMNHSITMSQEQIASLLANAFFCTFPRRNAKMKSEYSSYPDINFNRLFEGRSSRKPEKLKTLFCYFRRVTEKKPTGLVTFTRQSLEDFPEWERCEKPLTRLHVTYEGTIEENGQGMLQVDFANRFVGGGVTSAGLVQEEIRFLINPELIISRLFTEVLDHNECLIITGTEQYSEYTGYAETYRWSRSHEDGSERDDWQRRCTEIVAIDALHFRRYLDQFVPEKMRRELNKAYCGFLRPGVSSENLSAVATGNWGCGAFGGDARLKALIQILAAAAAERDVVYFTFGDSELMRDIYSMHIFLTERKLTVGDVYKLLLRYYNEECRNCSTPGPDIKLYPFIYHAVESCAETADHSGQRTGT

As to `CC1(C(=O)N2CCN(c3cc(S(=O)(=O)NC4(C#N)CC4)cn4c(-c5nnc(C(F)(F)F)s5)ncc34)CC2)CCCO1` (centres unmarked) [Example 298, N-(1-cyanocyclopropyl)-8-(4-(2-methyltetrahydrofuran-2-carbonyl)piperazin-1-yl)-3-(5-(trifluoromethyl)-1,3,4-thiadiazol-2-yl)imidazo[1,5-a]pyridine-6-sulfonamide], the concentration for half-maximal inhibition (IC50) (as a rule, the concentration that gives 50% inhibition) against PARG (PARG, TFMU-ADPr substrate) was 19.1 nM; in the data set on HCC1806 (Homo sapiens, HCC1806, 168 h), 175 nM. In addition, the solubility – broadly, the concentration that dissolves in the medium under given conditions – at 2 h in data set [1] (setting [3]) was above 100 µM; in data set [1] (setting [4]), 97.7 µM (≈ 59.7 µg/mL).

Turning to `CC1(NS(=O)(=O)c2cc(N3CCN(C(=O)C4CC4)CC3)c3cnc(-c4nnc(C(F)(F)F)s4)n3c2)COC1` [Example 175, 8-(4-(cyclopropanecarbonyl)piperazin-1-yl)-N-(3-methyloxetan-3-yl)-3-(5-(trifluoromethyl)-1,3,4-thiadiazol-2-yl)imidazo[1,5-a]pyridine-6-sulfonamide], the IC50 was found to be 18.2 nM on PARG (PARG, TFMU-ADPr substrate) and 565 nM in the data set with HCC1806 (Homo sapiens, HCC1806, 168 h). Moreover, the solubility at 2 h in data set [1] (setting [3]) was found to be 21.5 µM (≈ 12.3 µg/mL); in data set [1] (setting [4]) it was 97.2 µM (≈ 55.6 µg/mL).

`CC(C)C(=O)N1CCN(c2cc(S(=O)(=O)NC3(CF)COC3)cn3c(-c4nnc(C(F)F)s4)ncc23)CC1` [Example 60, 3-(5-(difluoromethyl)-1,3,4-thiadiazol-2-yl)-N-(3-(fluoromethyl)oxetan-3-yl)-8-(4-isobutyrylpiperazin-1-yl)imidazo[1,5-a]pyridine-6-sulfonamide]: the IC50 on PARG (setting [5]) is below 100 nM; at PARG (PARG, TFMU-ADPr substrate), 0.19 nM; in data set [2] (setting [6]), 2.85 nM; in data set [2] (setting [7]), above 1000 nM; in the data set with HCC1806, 438 nM; in the data set with HCC1806 (Homo sapiens, HCC1806, 168 h) it was below 500 nM. The solubility at 2 h in data set [1] (setting [3]) came to 3.83 µM (≈ 2.2 µg/mL); in data set [1] (setting [4]) it was 10 µM (≈ 5.74 µg/mL).

As to `CC(C)C(=O)N1CCN(c2cc(S(=O)(=O)NC3(C)COC3)cn3c(-c4nnc(C(F)F)s4)nc(Cl)c23)C[C@H]1C` [Example 124, (R)-1-chloro-3-(5-(difluoromethyl)-1,3,4-thiadiazol-2-yl)-8-(4-isobutyryl-3-methylpiperazin-1-yl)-N-(3-methyloxetan-3-yl)imidazo[1,5-a]pyridine-6-sulfonamide], the 50% inhibitory concentration (IC50) against PARG (PARG, TFMU-ADPr substrate) was 2.54 nM; in the data set with HCC1806 (Homo sapiens, HCC1806, 168 h) it was 759 nM. In addition, the solubility at 2 h was 38.5 µM (≈ 23.3 µg/mL) in data set [1] (setting [3]) and 88.2 µM (≈ 53.3 µg/mL) in data set [1] (setting [4]).

As to `[2H]c1nc(-c2nnc(C(F)F)s2)n2cc(S(=O)(=O)NC3(C)COC3)cc(N3CCN(C(=O)C(C)C)CC3)c12` [Example 159, 3-(5-(difluoromethyl)-1,3,4-thiadiazol-2-yl)-8-(4-isobutyrylpiperazin-1-yl)-N-(3-methyloxetan-3-yl)imidazo[1,5-a]pyridine-6-sulfonamide-1-d], the IC50 on PARG (setting [5]) is below 100 nM; against PARG (PARG, TFMU-ADPr substrate) it was 0.46 nM; in data set [2] (setting [6]), 1.12 nM; in data set [2] (setting [7]), below 100 nM. In addition, the results for the solubility at 2 h in data set [1] (setting [3]) and in data set [1] (setting [4]) were 5.19 µM (≈ 2.89 µg/mL) and 17.4 µM (≈ 9.69 µg/mL), respectively.

In the case of `CC1(O)CCN(c2cc(S(=O)(=O)NC3(CF)CC3)cn3c(-c4nnc(C(F)F)s4)nnc23)CC1` [Example 107, 3-(5-(difluoromethyl)-1,3,4-thiadiazol-2-yl)-N-(1-(fluoromethyl)cyclopropyl)-8-(4-hydroxy-4-methylpiperidin-1-yl)-[1,2,4]triazolo[4,3-a]pyridine-6-sulfonamide], the half-inhibitory concentration (IC50) on PARG (setting [5]) is below 100 nM; against PARG (PARG, TFMU-ADPr substrate), 2.04 nM; in data set [2] (setting [6]), 74 nM; in data set [2] (setting [7]), below 100 nM; with HCC1806, 513 nM; with HCC1806 (Homo sapiens, HCC1806, 168 h), 500 to 5000 nM. Further, the solubility at 2 h worked out at 15.9 µM (≈ 8.23 µg/mL) in data set [1] (setting [3]) and 24.2 µM (≈ 12.5 µg/mL) in data set [1] (setting [4]).

Turning to `C[C@@H]1CN(c2cc(S(=O)(=O)NC3(CF)CC3)cn3c(-c4nnc(C(F)F)s4)nnc23)CCN1C(=O)C1(C)CC1` [Example 120, (R)-3-(5-(difluoromethyl)-1,3,4-thiadiazol-2-yl)-N-(1-(fluoromethyl)cyclopropyl)-8-(3-methyl-4-(1-methylcyclopropane-1-carbonyl)piperazin-1-yl)-[1,2,4]triazolo[4,3-a]pyridine-6-sulfonamide], the IC50 was below 100 nM against PARG (setting [5]); 1.49 nM against PARG (PARG, TFMU-ADPr substrate); 2.28 nM in data set [2] (setting [6]); below 100 nM in data set [2] (setting [7]). Further, the solubility at 2 h worked out at 81.8 µM (≈ 47.8 µg/mL) in data set [1] (setting [3]) and 140 µM (≈ 81.9 µg/mL) in data set [1] (setting [4]).

`CN(C)C(=O)N1CCN(c2cc(S(=O)(=O)NC3(C#N)CC3)cn3c(-c4nnc(C(F)(F)F)s4)ncc23)CC1` [Example 227, 4-(6-(N-(1-cyanocyclopropyl)sulfamoyl)-3-(5-(trifluoromethyl)-1,3,4-thiadiazol-2-yl)imidazo[1,5-a]pyridin-8-yl)-N,N-dimethylpiperazine-1-carboxamide]: the 50% inhibitory concentration (IC50) at PARG (PARG, TFMU-ADPr substrate) is 5.01 nM; in the data set with HCC1806 (Homo sapiens, HCC1806, 168 h), 300 nM. For the same molecule, the solubility at 2 h in data set [1] (setting [3]) is 73.8 µM (≈ 42 µg/mL); in data set [1] (setting [4]) it was 82.4 µM (≈ 46.9 µg/mL).
